In paper PMC5614982, “Impact of Gastric H^+/K^+-ATPase rs2733743 on the Intragastric pH-Values of Dexlansoprazole Injection in Chinese Subjects” (Frontiers in Pharmacology, 2017):
Values joined by “and” are separate entries in the source; they are usually repeats but may differ in a detail not shown here. Equal entries are not always repeated.

System: intragastric pH
Assay: 24-h intragastric pH monitoring after single intravenous dexlansoprazole in healthy Chinese subjects
Format: in vivo, human
Protocol: Dexlansoprazole injection (30 mg per vial) used in the PK and PD study was manufactured by Nanjing Yoko Pharma Co., Ltd. (Nanjing, China). Subjects received an intravenous infusion of 20 or 30 mg dexlansoprazole injection in sterile saline solution (100 mL/h, 60 min). The study drug was administrated with an infusing pump (SA213, Lifepum, Beijing, China) and given through an intravenous catheter in the antecubital vein opposite to the one from which blood samples were taken.
An ambulatory pH recorder (Orion II, MMS, USA) with a disposable pH catheter (VersaFlex, MMS, USA) was used to monitor intragastric pH. The electrode was placed in water for at least 10 min and then calibrated using standard buffer solutions (pH 1.07 and 7.01) before intubation. Both calibration and intubation processes were conducted under the guidance of MMS Virtual Instructor Program. The catheter, trans nasally placed 10 cm under the lower esophageal sphincter, was identified by a sharp decrease in pH (Wang et al., [2010], [2011]). Subjects were intubated on baseline and the day of dosing at about 7:30 a.m., and the intragastric pH data were recorded continuously for 24 h from 8:00 a.m. Intragastric pH was sampled every second, and the data were stored in a MMS Database program (MMS, USA). The PD parameters including Median (pH), Mean (pH), TpH≥3 (%), TpH≥4 (%), TpH≥6 (%), TpH≥6, and AUC^pH−t were analyzed by the MMS Database program.
Median (pH) and mean (pH) were well-investigated in most studies, and the percentage time of pH ≥ 4 (or pH ≥ 4 holding time ratio) was the benchmark for predicting clinical efficacy of PPIs in treating acid-related diseases (Metz et al., [2009]). Novel parameter TpH≥6 (time to first gastric pH ≥ 6, min) and AUCτ 1-τ 2pH-t (area under pH-time curve from τ1 to τ2, pH·s) were defined to evaluate the velocity and extent of pharmacodynamics with more accuracy. All parameters were calculated and compared according to time periods of 0–24, 0–4, 4–10, 10–14, and 14–24 h post dosing.
The parameter AUCτ 1-τ 2pH-t was calculated as follows:
Where t represented the time duration measured by seconds, AUCτ 1-τ 210-t was the area between the pH line = 10 and the pH-time curve, which was generated by the MMS software.
Baseline-adjusted PD parameters were calculated as follows: for example, ΔAUC^pH−t = AUC^pH−t − AUC^pH−tbaseline, ΔMean (pH) = Mean (pH) − Mean (pH)^baseline, and ΔMedian (pH) = Median (pH) − Median (pH)^baseline.

Cc1c(OCC(F)(F)F)ccnc1C[S@@+]([O-])c1nc2ccccc2[nH]1 [dexlansoprazole]
time to first gastric pH ≥ 6 (TpH≥6) (20 mg group): 76 (± 29) min and 76 ± 29 min
Mean (pH) (20 mg iv, 0–4 h): 4.3 ± 1.5 pH
Median (pH) (20 mg iv, 0–4 h): 4.6 ± 2.1 pH
TpH≥3(%) (20 mg iv, 0–4 h): 57.5 ± 22.1 %
TpH≥4(%) (20 mg iv, 0–4 h): 46.5 ± 26.3 %
TpH≥6(%) (20 mg iv, 0–4 h): 33.2 ± 29.4 %
ΔMean (pH) (20 mg iv, 0–4 h): 2.1 ± 1.1 pH
ΔMedian (pH) (20 mg iv, 0–4 h): 2.5 ± 1.9 pH
ΔTpH≥3(%) (20 mg iv, 0–4 h): 47.1 ± 20.6%
ΔTpH≥4 (%) (20 mg iv, 0–4 h): 39.0 ± 22.3 %
ΔTpH≥6(%) (20 mg iv, 0–4 h): 27.6 ± 24.2 %
Mean (pH) (20 mg iv, 0–24 h): 4.9 ± 1.2 pH
Median (pH) (20 mg iv, 0–24 h): 4.9 ± 1.5 pH
TpH≥3(%) (20 mg iv, 0–24 h): 68.5 ± 20.9 %
TpH≥4(%) (20 mg iv, 0–24 h): 60.4 ± 22.2 %
TpH≥6(%) (20 mg iv, 0–24 h): 40.1 ± 21.3 %
ΔMean (pH) (20 mg iv, 0–24 h): 2.4 ± 1.0 pH
ΔMedian (pH) (20 mg iv, 0–24 h): 3.1 ± 1.5 pH
ΔTpH≥3(%) (20 mg iv, 0–24 h): 44.5 ± 19.0 %
ΔTpH≥4 (%) (20 mg iv, 0–24 h): 45.0 ± 20.7 %
ΔTpH≥6(%) (20 mg iv, 0–24 h): 33.7 ± 18.8 %
Mean (pH) (20 mg iv, 4–10 h): 6.2 ± 1.4 pH
Median (pH) (20 mg iv, 4–10 h): 6.3 ± 1.6 pH
TpH≥3(%) (20 mg iv, 4–10 h): 89.4 ± 23.1%
TpH≥4(%) (20 mg iv, 4–10 h): 89.0 ± 22.1%
TpH≥6(%) (20 mg iv, 4–10 h): 64.1 ± 31.0 %
ΔMean (pH) (20 mg iv, 4–10 h): 3.3 ± 1.4 pH
ΔMedian (pH) (20 mg iv, 4–10 h): 3.6 ± 1.7 pH
ΔTpH≥3(%) (20 mg iv, 4–10 h): 51.8 ± 29.6%
ΔTpH≥4 (%) (20 mg iv, 4–10 h): 65.8 ± 26.9%
ΔTpH≥6(%) (20 mg iv, 4–10 h): 54.9 ± 32.2 %
Mean (pH) (20 mg iv, 10–14 h): 6.5 ± 1.6 pH
Median (pH) (20 mg iv, 10–14 h): 6.6 ± 1.6 pH
TpH≥3(%) (20 mg iv, 10–14 h): 92.7 ± 18.1%
TpH≥4(%) (20 mg iv, 10–14 h): 88.4 ± 22.7%
TpH≥6(%) (20 mg iv, 10–14 h): 70.9 ± 35.5%
ΔMean (pH) (20 mg iv, 10–14 h): 3.3 ± 1.4 pH
ΔMedian (pH) (20 mg iv, 10–14 h): 3.7 ± 1.5 pH
ΔTpH≥3(%) (20 mg iv, 10–14 h): 43.8 ± 25.3%
ΔTpH≥4 (%) (20 mg iv, 10–14 h): 55.5 ± 26.0%
ΔTpH≥6(%) (20 mg iv, 10–14 h): 63.7 ± 34.3%
Mean (pH) (20 mg iv, 14–24 h): 3.6 ± 1.3 pH
Median (pH) (20 mg iv, 14–24 h): 3.2 ± 1.4 pH
TpH≥3(%) (20 mg iv, 14–24 h): 48.7 ± 30.8 %
TpH≥4(%) (20 mg iv, 14–24 h): 37.6 ± 31.3 %
TpH≥6(%) (20 mg iv, 14–24 h): 16.3 ± 19.3 %
ΔMean (pH) (20 mg iv, 14–24 h): 1.6 ± 1.1 pH
ΔMedian (pH) (20 mg iv, 14–24 h): 1.5 ± 1.3 pH
ΔTpH≥3(%) (20 mg iv, 14–24 h): 38.8 ± 27.8 %
ΔTpH≥4 (%) (20 mg iv, 14–24 h): 31.2 ± 28.2 %
ΔTpH≥6(%) (20 mg iv, 14–24 h): 12.0 ± 14.0 %
time to first gastric pH ≥ 6 (TpH≥6) (30 mg group): 58 (± 25) min and 58 ± 25 min
Mean (pH) (30 mg iv, 0–4 h): 5.5 ± 1.5 pH
Median (pH) (30 mg iv, 0–4 h): 6.1 ± 2.0 pH
TpH≥3(%) (30 mg iv, 0–4 h): 72.3 ± 20.8%
TpH≥4(%) (30 mg iv, 0–4 h): 66.5 ± 23.4%
TpH≥6(%) (30 mg iv, 0–4 h): 54.6 ± 29.2%
ΔMean (pH) (30 mg iv, 0–4 h): 3.3 ± 1.1 pH
ΔMedian (pH) (30 mg iv, 0–4 h): 4.1 ± 1.9 pH
ΔTpH≥3(%) (30 mg iv, 0–4 h): 57.5 ± 22.2%
ΔTpH≥4 (%) (30 mg iv, 0–4 h): 56.6 ± 19.6%
ΔTpH≥6(%) (30 mg iv, 0–4 h): 50.7 ± 26.1%
Mean (pH) (30 mg iv, 0–24 h): 6.1 ± 1.2 pH
Median (pH) (30 mg iv, 0–24 h): 6.4 ± 1.4 pH
TpH≥3(%) (30 mg iv, 0–24 h): 85.1 ± 15.7%
TpH≥4(%) (30 mg iv, 0–24 h): 79.8 ± 19.0%
TpH≥6(%) (30 mg iv, 0–24 h): 64.2 ± 21.0%
ΔMean (pH) (30 mg iv, 0–24 h): 3.4 ± 1.1 pH
ΔMedian (pH) (30 mg iv, 0–24 h): 4.3 ± 1.3 pH
ΔTpH≥3(%) (30 mg iv, 0–24 h): 58.6 ± 18.5%
ΔTpH≥4 (%) (30 mg iv, 0–24 h): 62.8 ± 20.3%
ΔTpH≥6(%) (30 mg iv, 0–24 h): 56.6 ± 18.8%
Mean (pH) (30 mg iv, 4–10 h): 6.9 ± 1.0 pH
Median (pH) (30 mg iv, 4–10 h): 7.1 ± 0.9 pH
TpH≥3(%) (30 mg iv, 4–10 h): 96.8 ± 7.6%
TpH≥4(%) (30 mg iv, 4–10 h): 94.5 ± 11.9%
TpH≥6(%) (30 mg iv, 4–10 h): 83.2 ± 22.3%
ΔMean (pH) (30 mg iv, 4–10 h): 4.2 ± 1.2 pH
ΔMedian (pH) (30 mg iv, 4–10 h): 4.6 ± 1.2 pH
ΔTpH≥3(%) (30 mg iv, 4–10 h): 60.4 ± 21.3%
ΔTpH≥4 (%) (30 mg iv, 4–10 h): 75.7 ± 19.2%
ΔTpH≥6(%) (30 mg iv, 4–10 h): 80.3 ± 22.3%
Mean (pH) (30 mg iv, 10–14 h): 7.2 ± 1.2 pH
Median (pH) (30 mg iv, 10–14 h): 7.3 ± 1.3 pH
TpH≥3(%) (30 mg iv, 10–14 h): 96.8 ± 9.5%
TpH≥4(%) (30 mg iv, 10–14 h): 95.0 ± 12.9%
TpH≥6(%) (30 mg iv, 10–14 h): 84.5 ± 24.3%
ΔMean (pH) (30 mg iv, 10–14 h): 4.2 ± 1.5 pH
ΔMedian (pH) (30 mg iv, 10–14 h): 4.5 ± 1.7 pH
ΔTpH≥3(%) (30 mg iv, 10–14 h): 54.1 ± 28.5%
ΔTpH≥4 (%) (30 mg iv, 10–14 h): 70.6 ± 26.4%
ΔTpH≥6(%) (30 mg iv, 10–14 h): 82.1 ± 23.6%
Mean (pH) (30 mg iv, 14–24 h): 5.5 ± 1.5 pH
Median (pH) (30 mg iv, 14–24 h): 5.3 ± 1.9 pH
TpH≥3(%) (30 mg iv, 14–24 h): 78.9 ± 27.7%
TpH≥4(%) (30 mg iv, 14–24 h): 70.6 ± 31.1%
